In US20100068181A1, “PYRROLO [3, 2-A] PYRIDINE DERIVATIVES FOR INHIBITING KSP KINESIN ACTIVITY” (Schering Corporation, priority 2006, published 2010):

Molecular target: T1, KSP (Homo sapiens, UniProt P52732)
T1 sequence (P52732 1-1056): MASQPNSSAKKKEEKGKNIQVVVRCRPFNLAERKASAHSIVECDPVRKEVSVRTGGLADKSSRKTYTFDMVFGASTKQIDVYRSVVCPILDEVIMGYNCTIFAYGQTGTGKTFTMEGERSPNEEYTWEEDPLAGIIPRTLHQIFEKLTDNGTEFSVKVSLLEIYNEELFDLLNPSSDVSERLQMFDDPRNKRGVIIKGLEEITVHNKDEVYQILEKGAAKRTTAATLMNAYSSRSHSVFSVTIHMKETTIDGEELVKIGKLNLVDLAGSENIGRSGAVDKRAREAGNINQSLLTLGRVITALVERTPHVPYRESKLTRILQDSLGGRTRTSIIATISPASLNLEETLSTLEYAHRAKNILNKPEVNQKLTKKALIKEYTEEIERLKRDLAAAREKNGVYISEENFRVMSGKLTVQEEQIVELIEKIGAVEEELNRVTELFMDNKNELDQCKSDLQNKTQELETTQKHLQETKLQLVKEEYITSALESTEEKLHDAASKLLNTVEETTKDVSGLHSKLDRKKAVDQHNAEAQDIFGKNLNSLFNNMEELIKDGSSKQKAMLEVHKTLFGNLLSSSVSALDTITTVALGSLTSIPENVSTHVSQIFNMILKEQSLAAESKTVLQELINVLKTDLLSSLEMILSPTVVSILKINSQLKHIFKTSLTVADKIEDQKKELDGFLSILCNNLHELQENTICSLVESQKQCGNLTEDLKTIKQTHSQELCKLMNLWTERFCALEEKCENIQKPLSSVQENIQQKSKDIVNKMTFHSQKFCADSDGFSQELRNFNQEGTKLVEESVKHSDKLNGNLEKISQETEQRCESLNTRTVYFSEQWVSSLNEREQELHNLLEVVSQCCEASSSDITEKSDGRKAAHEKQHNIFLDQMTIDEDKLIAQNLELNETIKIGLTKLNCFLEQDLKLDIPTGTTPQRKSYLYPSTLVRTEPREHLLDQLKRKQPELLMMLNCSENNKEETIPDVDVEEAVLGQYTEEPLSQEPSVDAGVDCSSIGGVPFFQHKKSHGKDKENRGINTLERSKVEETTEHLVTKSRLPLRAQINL
Assay: KSP inhibitory activity, end-point assay
Format: biochemical
Settings: KSP inhibitory activity based on end-point assay; read-out: IC50 Rating
Source text: The inhibitory activity of the present compounds towards KSP may be assayed by methods known in the art, for example, by using the methods as described in the examples.

Row | IC50 [µM] | Compound
1 | > 10 | CC(C)(C)C1CCc2nc3cc(C(O)c4cccc(Cl)c4)[nH]c3cc2C1 (stereo not shown) [Example 112]
2 | 0.1 to 1 | CCC(O)c1cc2nc3c(cc2[nH]1)CC(C(C)(C)C)CC3 (stereo not shown) [Example 113]
3 | 0.1 to 1 | C=CCC(O)c1cc2nc3c(cc2[nH]1)CC(C(C)(C)C)CC3 (stereo not shown) [Example 114]
4 | 1 to 10 | CC(C)(C)C1CCc2nc3c(-c4cccc(O)c4)c(C(N)=O)[nH]c3cc2C1 (stereo not shown) [Example 115]
5 | > 10 | COc1cccc(-c2c(C(N)=O)[nH]c3cc4c(nc23)CCC(C(C)(C)C)C4)c1 (stereo not shown) [Example 116]
6 | > 10 | CC(C)(C)C1CCc2nc3c(-c4cccc(OC(F)(F)F)c4)c(C(N)=O)[nH]c3cc2C1 (stereo not shown) [Example 117]
7 | > 10 | COc1ccc(OC)c(-c2c(C(N)=O)[nH]c3cc4c(nc23)CCC(C(C)(C)C)C4)c1 (stereo not shown) [Example 118]
8 | > 10 | CC(C)(C)C1CCc2nc3c(-c4cccc(C#N)c4)c(C(N)=O)[nH]c3cc2C1 (stereo not shown) [Example 119]
9 | 0.1 to 1 | CC(C)(C)C1CCc2nc3c(-c4cccc(S(C)(=O)=O)c4)c(C(N)=O)[nH]c3cc2C1 (stereo not shown) [Example 120]
10 | > 10 | CC(C)(C)C1CCc2nc3c(-c4cccc(N)c4)c(C(N)=O)[nH]c3cc2C1 (stereo not shown) [Example 121]
11 | 0.1 to 1 | CC(C)(C)C1CCc2nc3cc(C(=O)N[C@H](CN)c4ccccc4)[nH]c3cc2C1 (stereo partly shown) [Example 122]
12 | < 0.1 | CC(C)(C)C1CCc2nc3cc(C(=O)N[C@H](CN)c4cccc(N)c4)[nH]c3cc2C1 (stereo partly shown) [Example 123]
13 | < 0.1 | CC(C)(C)C1CCc2nc3cc(C(=O)N[C@H](CN)c4cccc(NC(=O)c5ccco5)c4)[nH]c3cc2C1 (stereo partly shown) [Example 124]
